17 compounds from patent US7244743B2, “Non-peptidic BRS-3 agonists” (Solvay Pharmaceuticals GmbH, priority 2002, dated 2007) can be followed below.

For series [1], the target named is T1, human BRS-3 (subtype 3 of the human bombesin receptor) (Homo sapiens, UniProt P32247).
T1 construct: expressed in transfected cells; host or cells: CHO-K1 cells, stably transfected with RD-HGA16 (human Gα16) and pcDNA3.1(-)-BRS-3; single-cell clone selected
T1 sequence (P32247 1-399): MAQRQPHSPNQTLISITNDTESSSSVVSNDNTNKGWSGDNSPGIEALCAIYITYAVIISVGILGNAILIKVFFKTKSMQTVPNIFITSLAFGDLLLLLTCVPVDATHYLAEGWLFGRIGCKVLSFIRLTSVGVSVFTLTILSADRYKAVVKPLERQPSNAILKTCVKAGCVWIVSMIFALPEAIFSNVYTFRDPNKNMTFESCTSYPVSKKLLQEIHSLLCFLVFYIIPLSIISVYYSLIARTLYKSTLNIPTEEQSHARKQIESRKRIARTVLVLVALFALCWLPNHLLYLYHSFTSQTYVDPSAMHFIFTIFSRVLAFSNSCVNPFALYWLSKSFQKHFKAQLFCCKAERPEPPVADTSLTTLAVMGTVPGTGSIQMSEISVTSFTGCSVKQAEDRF
The series can be described thus: FLIPR test: agonistic activity on BRS-3 (Ca2+ fluorescence, Fluo4) in transfected CHO cells. The format is cell-based. The settings on record: for EC50: CHO-K1 cells co-expressing human BRS-3 and human Gα16, 50% activation relative to maximum response of nonapeptide [D-Phe6,β-Ala11,Phe13,Nle14]Bn(6-14) (=100%). From the text: For this, CHO cells (=“Chinese hamster ovary cells”) initially were transfected in known manner with an expression vector for the subtype 3 of the human bombesin receptor, i.e. BRS-3.
The cDNA of the human BRS-3 (nucleotide sequence under GenBank Accession No. L08893) was excised from the plasmid vector pGEM4 (from Promega, USA) using the restriction endonuclease EcoRI and was subcloned into the expression vector pcDNA3.1(−) (from Invitrogen, USA). CHO-K1 cells, which were already stably transfected with the expression vector RD-HGA16, which bears the cDNA sequence of the human Gα16 protein (nucleotide sequence under GenBank Accession No. M63904), were placed in sample plates with 24 sample wells (“24-well plate”) and incubated overnight under sterile conditions in an air-humidified incubator at 37° C. and 5% CO2 in F-12 medium plus Glutamax-I (from GibcoBRL, cat. No. 31765), to which 10%-strength foetal calf serum (inactivated at 56° C. for 1 h, from GibcoBRL), 25 μg/ml gentamicin (from GibcoBRL) and 0.2 mg/ml hygromycin B (from GibcoBRL) had been added. The next day, the cells were transfected with the BRS-3 expression vector by adding, using the “Effectene Transfection Reagent” (from Qiagen), 12 μl of a solution containing 0.3 μg/μl DNA of the expression vector per sample well. One day after transfection, the culture medium was replaced by selection medium. For this, the transfected cells, which each simultaneously express BRS-3 and the human Gα16 protein, were cultivated under sterile conditions at 37° C. and 5% CO2 in F-12 medium plus Glutamax-I (from GibcoBRL, cat. No. 31765), to which 10%-strength foetal calf serum (inactivated at 56° C. for 1 h, from GibcoBRL), 25 μg/ml gentamicin (from GibcoBRL), 0.2 mg/ml hygromycin B (from GibcoBRL) and 0.5 mg/ml geneticin (from GibcoBRL) had been added. To optimize the cell test, the cells with the highest receptor expression rate were selected. For this, the transfected cells were diluted 1:30,000 with the selection medium described above and were placed in sample plates with 96 sample wells (“96-well plate”). The cells were incubated overnight at 37° C. and 5% CO2, then those sample wells which contained only an individual cell were selected. These cells were first started in sample plates with 24 sample wells (“24-well plate”) and then cultivated in Costar plastic flasks (first 25 ml and then 225 ml). The BRS-3 receptor expression of the respective individual cell clone was estimated by determination of the EC50 value of the synthetic nonapeptide [D-Phe^6,β-Ala^11,Phe^13,Nle^14]Bn(6-14) as ligand (for performance of the test see below). The transfected cells were stored at −80° C. in aliquots of 1.8 ml medium each with 10% dimethyl sulfoxide (=DMSO) (cell concentration 1×10^6 cells/ml). For cultivation, a frozen aliquot was heated to 37° C., transferred into a Costar plastic flask (225 ml) and diluted with 50 ml of the selection medium described above. The medium was first changed once after 30 minutes' incubation. On each following first to third day, the medium was removed, the adherent cells (40-95% confluence) were washed with PBS Dulbecco's (from GibcoBRL) and detached from the bottom of the flask by a 2-minute treatment with trypsin-EDTA solution (from GibcoBRL) at 37° C. If the cells were to be cultivated further, they were transferred into a new plastic flask with fresh medium. If experiments were to be carried out with the cells, the cells were transferred into Costar sample plates with 96 sample wells, a clear baseplate and cover (“Costar 96-well assay plates”, from Coming), once the cell concentration had been set to 1.2×10^4 cells/ml.
BRS-3 is coupled via G-proteins to the Ca^2+-signal transduction path of the CHO cell. If an agonist binds to the receptor, the phospholipase C is activated via the G-protein, and then in turn catalyses the synthesis of water-soluble inositol phosphates. […]

Square brackets hold non-standard residues; d marks the D form. Peptide text beside a SMILES is read from it. * marks the point of attachment. NHPhenethyl = c1ccc(CCN*)cc1; PhAc = O=C(Cc1ccccc1)*

`O=C(Cc1cc2ccccc2[nH]1)NNC(=O)NC(Cc1c[nH]c2ccccc12)C(=O)NCCc1ccccc1` (centres unmarked) [Example 30]: the EC50 in series [1] turned out to be 2.2 nM.
Still for that read-out and setting: the same measure for `NC(=O)CCC(NC(=O)Cc1cc2ccccc2[nH]1)C(=O)NC(Cc1c[nH]c2ccccc12)C(=O)NCCc1ccccc1` (centres unmarked) [Example 15]: 57 nM; for `CC(NCCc1ccccc1)C(=O)NC(Cc1c[nH]c2ccccc12)C(=O)NCCc1ccccc1` (centres unmarked) [Example 26]: 25 nM.
Still for that read-out and setting: the figure for `CC(NC(=O)Cc1cccnc1)C(=O)NC(Cc1c[nH]c2ccccc12)C(=O)NCCc1ccccc1` (centres unmarked) [Example 19] is 32 nM; for `O=C(Cc1ccccc1)NNC(=O)NC(Cc1c[nH]c2ccccc12)C(=O)NCCc1ccccc1` (centres unmarked) [Example 27] it is 3.1 nM.
Consider `O=C(NNCc1ccc(Cl)cc1)N[C@H](Cc1c[nH]c2ccccc12)C(=O)NCCc1ccccc1` [Example 5, N1-phenethyl-(2R)-2-[N′-(4-chlorobenzyl)-hydrazino]-carboxamido-3-(1H-3-indolyl)-propanamide], for which the melting point was in the range of 75 to 80 °C. Also, in series [1], the EC50 was 6 nM.
`O=C(CNCc1ccc(Cl)cc1)NC(Cc1c[nH]c2ccccc12)C(=O)NCCc1ccccc1` (centres unmarked) [Example 22] showed an EC50 in series [1] of 2.9 nM.
Consider `O=C(N/N=C/c1ccco1)N[C@H](Cc1c[nH]c2ccccc12)C(=O)NCCc1ccccc1` [Example 6, N1-phenethyl-(2R)-2-[N′-(furan-2-ylmethylene)-hydrazino]-carboxamido-3-(1H-3-indolyl)-propanamide], for which the melting point lay within 100 to 101 °C. The EC50 in series [1] came out at 1.5 nM.
Taken in the same sequence, the figures for `C[C@H](NC(=O)Cc1ccccc1)C(=O)N[C@H](Cc1c[nH]c2ccccc12)C(=O)NCCc1ccccc1` [Example 2, N1-phenethyl-(2R)-2-[(1S)-1-(benzylcarboxamido)-ethyl]-carboxamido-3-(1H-3-indolyl)-propanamide] (PhAc-Ala-[dW]-NHPhenethyl) were 205 to 207 °C and 2.1 nM.
For the compound “[D-Phe^6,β-Ala^11,Phe^13,Nle^14]Bn(6-14) [nonapeptide, reference compound]”, in series [1] (reference dilution series on each plate, adopted as 100% value), the “peptide concentration at which the maximum change in fluorescence had already been observed” value is approximately 16 µM.
As for `CC(NCc1ccc(Cl)cc1)C(=O)N[C@H](Cc1c[nH]c2ccccc12)C(=O)NCCc1ccccc1` (mixture of isomers) [Example 3, N1-phenethyl-(2R)-2-{1-[(4-chlorobenzyl)-amino]-ethylcarboxamido}-3-(1H-3-indolyl)-propanamide], the melting point lay in the range of 107 to 110 °C. The compound further came in with an EC50 in series [1] of 4 nM.
Take `O=C(CNCc1ccccc1)NC(Cc1c[nH]c2ccccc12)C(=O)NCCc1ccccc1` (centres unmarked) [Example 21]: the EC50 in series [1] was determined as 21 nM.
The same measure, in the same setting: the same measure for `O=C(CNCc1cccnc1)NC(Cc1c[nH]c2ccccc12)C(=O)NCCc1ccccc1` (centres unmarked) [Example 23]: 21 nM.
The compound `O=C(Cc1cccnc1)NNC(=O)N[C@H](Cc1c[nH]c2ccccc12)C(=O)NCCc1ccccc1` [Example 4, N1-phenethyl-(2R)-2-{N′-[2-(3-pyridyl)-ethanoyl]-hydrazino}-carboxamido-3-(1H-3-indolyl)-propanamide] displayed a melting point of 116 to 120 °C. The EC50 in series [1] amounted to 1.4 nM.
Taken in the same sequence, the figures for `O=C(CN1CCC(Cc2ccccc2)CC1)N[C@H](Cc1c[nH]c2ccccc12)C(=O)NCCc1ccccc1` [Example 7, N1-phenethyl-(2R)-2-[(4-benzylpiperidino)-methyl]-carboxamido-3-(1H-3-indolyl)-propanamide] were 73 to 75 °C and 30 nM.
With `O=C(CNCCc1ccccc1)NC(Cc1c[nH]c2ccccc12)C(=O)NCCc1ccccc1` (centres unmarked) [Example 24], the EC50 in series [1] was 17 nM.
Still for that read-out and setting: the figure for `O=C(Cc1ccc(Cl)cc1)NNC(=O)NC(Cc1c[nH]c2ccccc12)C(=O)NCCc1ccccc1` (centres unmarked) [Example 28] is 0.19 nM.

The melting point is the temperature, or range, at which the solid turns liquid.
